Test results from ChEMBL document CHEMBL1909046, “DrugMatrix in vitro pharmacology data”.

How the values were obtained:
[1] = target: T1, Alpha-1B adrenergic receptor (Rattus norvegicus, UniProt P15823); test: DRUGMATRIX: Alpha-1B adrenergic receptor radioligand binding (ligand: prazosin); assay type: cell membranes, Wistar, Liver, Membrane; details: Not Active = under 50% inhibition at 10 µM
T1 sequence (P15823 whole entry): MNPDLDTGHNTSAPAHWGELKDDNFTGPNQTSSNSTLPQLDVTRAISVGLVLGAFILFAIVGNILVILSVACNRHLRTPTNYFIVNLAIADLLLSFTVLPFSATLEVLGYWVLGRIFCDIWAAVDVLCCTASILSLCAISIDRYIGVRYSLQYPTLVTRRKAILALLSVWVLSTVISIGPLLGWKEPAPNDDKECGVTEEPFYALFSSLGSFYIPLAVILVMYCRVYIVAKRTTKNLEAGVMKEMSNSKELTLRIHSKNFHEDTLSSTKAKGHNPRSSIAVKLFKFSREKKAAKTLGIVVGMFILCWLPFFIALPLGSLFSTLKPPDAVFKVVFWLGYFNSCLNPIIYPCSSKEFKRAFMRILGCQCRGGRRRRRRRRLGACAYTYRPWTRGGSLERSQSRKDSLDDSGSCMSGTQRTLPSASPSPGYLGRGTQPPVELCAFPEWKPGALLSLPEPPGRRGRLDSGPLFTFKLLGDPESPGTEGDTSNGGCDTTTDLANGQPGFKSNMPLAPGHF

[2] = target: T2, Type-2 angiotensin II receptor (Homo sapiens, UniProt P50052); assay type: cell-based; details: cho-k1; also: in other assays of this panel Not Active means under 50% inhibition at 10 µM
T2 sequence (P50052 whole entry): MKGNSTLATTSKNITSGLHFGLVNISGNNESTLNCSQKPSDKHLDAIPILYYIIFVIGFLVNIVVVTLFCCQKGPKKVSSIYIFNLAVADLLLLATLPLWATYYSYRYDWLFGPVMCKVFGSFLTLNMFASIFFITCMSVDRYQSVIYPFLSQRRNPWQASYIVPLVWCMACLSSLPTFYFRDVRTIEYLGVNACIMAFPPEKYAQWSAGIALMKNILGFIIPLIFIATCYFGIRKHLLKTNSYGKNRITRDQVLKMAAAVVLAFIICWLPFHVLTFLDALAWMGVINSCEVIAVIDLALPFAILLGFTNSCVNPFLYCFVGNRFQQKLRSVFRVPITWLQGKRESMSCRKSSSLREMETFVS

[3] = target: T3, C-C chemokine receptor type 4 (Homo sapiens, UniProt P51679); assay type: cell membranes, Membrane; details: chem-1; also: in other assays of this panel Not Active means under 50% inhibition at 10 µM
T3 sequence (P51679 whole entry): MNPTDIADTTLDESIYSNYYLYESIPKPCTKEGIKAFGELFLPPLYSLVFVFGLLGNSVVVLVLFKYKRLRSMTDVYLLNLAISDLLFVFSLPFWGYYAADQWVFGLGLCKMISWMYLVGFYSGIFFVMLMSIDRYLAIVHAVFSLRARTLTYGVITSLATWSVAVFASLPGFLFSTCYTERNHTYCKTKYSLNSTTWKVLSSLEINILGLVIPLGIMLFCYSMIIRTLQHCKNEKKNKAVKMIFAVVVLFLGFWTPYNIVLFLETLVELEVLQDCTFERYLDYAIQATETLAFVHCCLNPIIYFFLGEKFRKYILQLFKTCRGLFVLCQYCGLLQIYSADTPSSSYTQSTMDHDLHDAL

[4] = target: T4, Neuropeptide Y receptor type 1 (Homo sapiens, UniProt P25929); assay type: cell membranes, Membrane; details: sk-n-mc; also: in other assays of this panel Not Active means under 50% inhibition at 10 µM
T4 sequence (P25929 whole entry): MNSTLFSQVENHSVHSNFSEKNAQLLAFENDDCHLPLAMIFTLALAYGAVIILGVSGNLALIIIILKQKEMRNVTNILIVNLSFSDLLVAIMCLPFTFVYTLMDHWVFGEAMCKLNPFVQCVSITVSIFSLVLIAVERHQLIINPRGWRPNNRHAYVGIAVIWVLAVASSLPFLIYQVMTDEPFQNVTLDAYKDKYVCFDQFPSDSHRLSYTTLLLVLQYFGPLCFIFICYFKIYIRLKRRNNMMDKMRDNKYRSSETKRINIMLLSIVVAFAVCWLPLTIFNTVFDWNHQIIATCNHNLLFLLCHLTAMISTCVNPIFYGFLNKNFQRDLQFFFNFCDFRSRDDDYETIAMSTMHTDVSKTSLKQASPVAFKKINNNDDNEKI

Interstitial collagenase = target: T5, Interstitial collagenase (Homo sapiens, UniProt P03956); assay type: tissue-based, Rheumatoid synovial fibroblasts;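 also: MMP-1 enzyme inhibition assay using a peptide substrate; in other assays of this panel Not Active means under 50% inhibition at 10 µM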
T5 sequence (P03956 whole entry): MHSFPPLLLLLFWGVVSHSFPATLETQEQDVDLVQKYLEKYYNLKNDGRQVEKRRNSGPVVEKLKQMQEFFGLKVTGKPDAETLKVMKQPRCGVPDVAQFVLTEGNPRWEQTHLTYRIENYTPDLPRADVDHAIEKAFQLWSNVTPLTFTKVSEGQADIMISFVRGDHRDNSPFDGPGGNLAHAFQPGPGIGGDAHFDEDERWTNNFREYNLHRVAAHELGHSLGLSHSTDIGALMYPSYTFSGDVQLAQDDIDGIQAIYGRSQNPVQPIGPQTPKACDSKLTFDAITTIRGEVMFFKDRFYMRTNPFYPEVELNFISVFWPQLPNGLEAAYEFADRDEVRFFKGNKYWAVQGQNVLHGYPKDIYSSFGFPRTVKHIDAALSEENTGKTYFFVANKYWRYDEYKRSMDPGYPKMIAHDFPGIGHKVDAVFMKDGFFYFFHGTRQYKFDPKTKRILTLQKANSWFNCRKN

[5] = target: Receptor tyrosine-protein kinase erbB-2 (Homo sapiens, UniProt P04626); test: biochemical; assay type: cell-based, Insect cells
Adenosine receptor A2a = Adenosine receptor A2a (Homo sapiens, UniProt P29274); test: DRUGMATRIX: Adenosine A2A radioligand binding (ligand: […]); assay type: cell membranes, HEK293, Membrane; details: Not Active = under 50% inhibition at 10 µM; for Ki: read-out: Ki
Adenosine receptor A2a, sequence (P29274 whole entry): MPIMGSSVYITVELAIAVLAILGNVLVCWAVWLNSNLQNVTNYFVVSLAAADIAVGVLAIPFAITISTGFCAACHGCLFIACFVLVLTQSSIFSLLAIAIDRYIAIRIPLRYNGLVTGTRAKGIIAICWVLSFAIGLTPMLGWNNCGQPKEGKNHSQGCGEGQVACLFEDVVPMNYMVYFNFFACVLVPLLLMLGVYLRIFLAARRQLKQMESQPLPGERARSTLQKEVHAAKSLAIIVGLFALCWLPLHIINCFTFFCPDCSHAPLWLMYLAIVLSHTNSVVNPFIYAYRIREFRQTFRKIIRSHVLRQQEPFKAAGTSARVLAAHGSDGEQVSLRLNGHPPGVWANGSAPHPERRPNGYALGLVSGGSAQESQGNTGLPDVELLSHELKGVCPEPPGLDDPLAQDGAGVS

Receptor tyrosine-protein kinase erbB-2, sequence (P04626 whole entry): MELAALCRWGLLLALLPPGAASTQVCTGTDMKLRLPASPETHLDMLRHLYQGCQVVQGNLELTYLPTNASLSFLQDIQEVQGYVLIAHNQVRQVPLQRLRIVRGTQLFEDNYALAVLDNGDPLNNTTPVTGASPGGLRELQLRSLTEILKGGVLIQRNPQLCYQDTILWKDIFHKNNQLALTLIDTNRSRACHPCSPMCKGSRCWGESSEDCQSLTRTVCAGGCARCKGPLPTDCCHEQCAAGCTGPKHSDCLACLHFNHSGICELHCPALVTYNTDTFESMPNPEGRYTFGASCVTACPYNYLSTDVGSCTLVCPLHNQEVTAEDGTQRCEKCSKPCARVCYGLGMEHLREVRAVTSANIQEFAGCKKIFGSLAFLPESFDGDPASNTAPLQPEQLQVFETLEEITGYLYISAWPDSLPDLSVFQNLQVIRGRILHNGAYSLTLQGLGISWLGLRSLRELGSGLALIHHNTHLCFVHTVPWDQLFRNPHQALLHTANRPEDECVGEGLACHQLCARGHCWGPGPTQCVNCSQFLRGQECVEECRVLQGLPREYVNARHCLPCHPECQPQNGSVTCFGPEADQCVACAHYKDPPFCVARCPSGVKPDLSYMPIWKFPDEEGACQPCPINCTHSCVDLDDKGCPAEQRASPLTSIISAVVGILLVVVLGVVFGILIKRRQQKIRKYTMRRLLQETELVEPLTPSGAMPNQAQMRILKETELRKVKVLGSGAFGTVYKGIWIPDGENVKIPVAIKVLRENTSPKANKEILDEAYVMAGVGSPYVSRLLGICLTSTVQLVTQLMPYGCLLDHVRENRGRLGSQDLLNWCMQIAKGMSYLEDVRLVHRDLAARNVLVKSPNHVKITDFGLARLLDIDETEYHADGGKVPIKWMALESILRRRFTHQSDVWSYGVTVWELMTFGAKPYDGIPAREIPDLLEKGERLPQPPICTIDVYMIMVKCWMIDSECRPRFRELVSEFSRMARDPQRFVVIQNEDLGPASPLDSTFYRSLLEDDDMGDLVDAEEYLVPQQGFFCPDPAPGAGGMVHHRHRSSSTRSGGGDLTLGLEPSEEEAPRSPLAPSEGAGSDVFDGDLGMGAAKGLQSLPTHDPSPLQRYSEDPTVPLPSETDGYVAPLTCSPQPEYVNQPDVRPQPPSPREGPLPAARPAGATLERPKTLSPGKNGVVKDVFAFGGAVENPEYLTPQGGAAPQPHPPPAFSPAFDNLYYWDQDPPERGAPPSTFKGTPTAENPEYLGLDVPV

SMILES	IC50 [1]	IC50 [2]	IC50 [3]	IC50 [4]	IC50 (Interstitial collagenase)	IC50 ([5]; insect cells)	IC50 (Adenosine receptor A2a; read-out: IC50)	Ki (Adenosine receptor A2a)	IC50 (Adenosine receptor A2a; hek293)	IC50 ([1]; read-out: IC50)	Ki ([1]; read-out: Ki)	IC50 ([5]; read-out: IC50)
COc1cc(N)nc2[nH]c(-c3ccc(F)cc3)c(-c3ccncc3)c12	Not Active	Not Active	Not Active	Not Active	Not Active	Not Active	1030 nM	580 nM	–	–	–	–
CNS(=O)(=O)Cc1ccc2[nH]cc(CCN(C)C)c2c1	Not Active	Not Active	Not Active	Not Active	Not Active	Not Active	–	–	Not Active	–	–	–
CCCc1nn(C)c2c(=O)[nH]c(-c3cc(S(=O)(=O)N4CCN(C)CC4)ccc3OCC)nc12	–	Not Active	Not Active	Not Active	Not Active	Not Active	253 nM	142 nM	–	1460 nM	806 nM	–
COc1ccc(/C=C/C(=O)Nc2ccccc2C(=O)O)cc1OC	Not Active	Not Active	Not Active	Not Active	Not Active	Not Active	–	–	Not Active	–	–	–
CCOC(N)=O	Not Active	Not Active	Not Active	Not Active	Not Active	Not Active	–	–	Not Active	–	–	–
CC(=O)Nc1nnc(S(N)(=O)=O)s1 [ACETAZOLAMIDE]	–	Not Active	Not Active	Not Active	Not Active	Not Active	–	–	Not Active	–	–	–
O=c1[nH]c2ccccc2n1CCCN1CCC(n2c(=O)[nH]c3cc(Cl)ccc32)CC1 [DOMPERIDONE]	–	Not Active	Not Active	Not Active	Not Active	Not Active	–	–	Not Active	–	–	–
CC1=C(CC(=O)O)c2cc(F)ccc2/C1=C\c1ccc(S(C)(=O)=O)cc1 [EXISULIND]	Not Active	Not Active	Not Active	Not Active	Not Active	Not Active	–	–	Not Active	–	–	–
CC(C)OC(=O)C(C)(C)Oc1ccc(C(=O)c2ccc(Cl)cc2)cc1 [FENOFIBRATE]	–	Not Active	Not Active	Not Active	Not Active	Not Active	–	–	Not Active	–	–	–
OCCN1CCN(CCCN2c3ccccc3Sc3ccc(C(F)(F)F)cc32)CC1 [FLUPHENAZINE]	–	Not Active	Not Active	Not Active	Not Active	–	–	–	Not Active	–	–	19600 nM
CN1C2CCCC1CC(NC(=O)c1nn(C)c3ccccc13)C2 (stereo not drawn) [GRANISETRON]	–	Not Active	Not Active	Not Active	Not Active	Not Active	–	–	Not Active	–	–	–
Nc1nc2c(c(=O)[nH]1)N(C=O)C(CNc1ccc(C(=O)N[C@@H](CCC(=O)O)C(=O)O)cc1)CN2 (stereo partly drawn) [LEUCOVORIN]	Not Active	Not Active	Not Active	Not Active	Not Active	Not Active	–	–	Not Active	–	–	–
C[C@@H](O)[C@H]1C(=O)N2C(C(=O)O)=C(S[C@@H]3CN[C@H](C(=O)N(C)C)C3)[C@H](C)[C@H]12 [MEROPENEM]	Not Active	Not Active	Not Active	Not Active	Not Active	Not Active	–	–	Not Active	–	–	–
CC[C@@H](CO)NC(=O)[C@@H]1C=C2c3cccc4c3c(cn4C)C[C@H]2N(C)C1 [METHYSERGIDE]	–	Not Active	Not Active	Not Active	Not Active	Not Active	–	–	Not Active	–	–	–
CCN(CC)CC#CCOC(=O)C(O)(c1ccccc1)C1CCCCC1 (stereo not drawn) [OXYBUTYNIN]	–	Not Active	Not Active	Not Active	Not Active	Not Active	–	–	Not Active	–	–	–
O=P(O)(O)C(O)(Cc1cccnc1)P(=O)(O)O [RISEDRONIC ACID]	Not Active	Not Active	Not Active	Not Active	Not Active	Not Active	–	–	Not Active	–	–	–
CN(CCOc1ccc(CC2SC(=O)NC2=O)cc1)c1ccccn1 (stereo not drawn) [ROSIGLITAZONE]	Not Active	Not Active	Not Active	Not Active	Not Active	Not Active	–	–	Not Active	–	–	–
C=C(C)[C@H]1Cc2c(ccc3c2O[C@@H]2COc4cc(OC)c(OC)cc4[C@@H]2C3=O)O1 [ROTENONE]	Not Active	Not Active	Not Active	Not Active	Not Active	Not Active	–	–	Not Active	–	–	–
C#CCN(C)[C@H](C)Cc1ccccc1 [SELEGILINE]	Not Active	Not Active	Not Active	Not Active	Not Active	Not Active	–	–	Not Active	–	–	–
CO[C@H]1C[C@@H]2CC[C@@H](C)[C@@](O)(O2)C(=O)C(=O)N2CCCC[C@H]2C(=O)O[C@H]([C@H](C)C[C@@H]2CC[C@@H](O)[C@H](OC)C2)CC(=O)[C@H](C)/C=C(\C)[C@@H](O)[C@@H](OC)C(=O)[C@H](C)C[C@H](C)/C=C/C=C/C=C/1C [SIROLIMUS]	Not Active	Not Active	Not Active	Not Active	Not Active	Not Active	–	–	Not Active	–	–	–
CN[C@@H]1[C@H](O)[C@H](NC)[C@H]2O[C@@]3(O)C(=O)C[C@@H](C)O[C@H]3O[C@@H]2[C@H]1O [SPECTINOMYCIN]	Not Active	Not Active	Not Active	Not Active	Not Active	Not Active	–	–	Not Active	–	–	–
Nc1ccc(S(=O)(=O)Nc2ncccn2)cc1 [SULFADIAZINE]	Not Active	Not Active	Not Active	Not Active	Not Active	Not Active	–	–	Not Active	–	–	–
COc1ncnc(NS(=O)(=O)c2ccc(N)cc2)c1OC [SULFADOXINE]	Not Active	Not Active	Not Active	Not Active	Not Active	Not Active	–	–	Not Active	–	–	–
O=c1n(CCCN2CCN(c3cccc(Cl)c3)CC2)nc2ccccn12 [TRAZODONE]	–	Not Active	Not Active	Not Active	Not Active	Not Active	–	–	Not Active	–	–	–
